Counter-ions that a name gives are not always drawn. Like-named read-outs stand apart in the source and are kept apart here.
Assays:
PANC-1 [1] = test: Cytotoxicity assay (MTS, 72 h); format: cell-based; conditions: Homo sapiens
Method: Mia PaCa-2 and PANC-1 cells were seeded in 96-well plates at 4000 and 5000 cells per well, respectively.
(§1) Cytotoxicity Assay. […] Each experiment consisted of four replicates.

MDA-MB-231 = test: Cytotoxicity assay (MTS, 72 h); format: cell-based; conditions: Homo sapiens
Mia PaCa-2 [2] = test: Cytotoxicity assay (MTS, 72 h); format: cell-based; conditions: Homo sapiens
[3] = test system: melanoma, breast, pancreatic and prostate cancer cell lines; test: Cytotoxicity of Example 8 compounds; format: cell-based, human
From the text: as §1

A-253 and Detroit 562 = test: Cytotoxicity in head and neck cancer cell lines; format: cell-based; conditions: Homo sapiens; FIG. 39A; read-out: IC50 values, range over A-253 and Detroit 562
Method: A panel of dihydroquinoxalinones were tested in two head and neck cancer cell lines, A-253 and Detroit 562. A-253 cells are a human salivary epidermoid carcinoma cell line, whereas Detroit 562 is a head and neck squamous cell carcinoma (HNSCC). Oral cancer is the most common type of head and neck cancer and more than 90% of oral cancers are either oral or oropharyngeal squamous cell carcinoma (SCC). A major clinical dilemma is chemotherapy efficiency targeted for head and neck squamous cell carcinoma (HNSCC). The inability to successfully complete cancer treatment utilizing a standard surgical approach due to an advanced stage of HNSCC and/or resistance of SCC cells to conventional chemotherapy and/or radiotherapy leads to a continuous search for new compounds with cytostatic activity and minor side effects.
FIGS. 39B and 39C illustrate the graphical representation of the data. […] For example, at treatment levels as low of 0.5 nM, 12k was able to prevent head and neck cancer cell proliferation almost completely, whereas it required 5 nM of 17ya to achieve similar antiproliferation.

[4] = target: T1, tubulin protein from bovine brain (Bos taurus, UniProt P81947+Q6B856); test: Tubulin polymerization assay (FIG. 5A); format: biochemical; conditions: 10 μM, cell-free
T1 construct: tubulin protein from bovine brain origin; purchased Cytoskeleton, Denver, Colo; host or cells: bovine brain
T1 sequence (P81947 whole entry): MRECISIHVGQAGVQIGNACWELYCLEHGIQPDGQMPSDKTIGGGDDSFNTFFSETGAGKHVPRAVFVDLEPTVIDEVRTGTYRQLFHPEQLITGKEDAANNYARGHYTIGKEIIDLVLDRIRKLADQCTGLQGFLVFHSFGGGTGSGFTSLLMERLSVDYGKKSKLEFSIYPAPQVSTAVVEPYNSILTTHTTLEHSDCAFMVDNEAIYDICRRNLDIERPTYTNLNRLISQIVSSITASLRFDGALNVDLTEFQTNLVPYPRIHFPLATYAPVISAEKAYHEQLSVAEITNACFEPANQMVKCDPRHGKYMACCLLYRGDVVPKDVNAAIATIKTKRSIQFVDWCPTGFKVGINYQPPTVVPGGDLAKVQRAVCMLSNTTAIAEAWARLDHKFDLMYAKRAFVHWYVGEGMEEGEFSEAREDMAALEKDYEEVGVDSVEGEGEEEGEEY
T1 sequence (Q6B856 whole entry): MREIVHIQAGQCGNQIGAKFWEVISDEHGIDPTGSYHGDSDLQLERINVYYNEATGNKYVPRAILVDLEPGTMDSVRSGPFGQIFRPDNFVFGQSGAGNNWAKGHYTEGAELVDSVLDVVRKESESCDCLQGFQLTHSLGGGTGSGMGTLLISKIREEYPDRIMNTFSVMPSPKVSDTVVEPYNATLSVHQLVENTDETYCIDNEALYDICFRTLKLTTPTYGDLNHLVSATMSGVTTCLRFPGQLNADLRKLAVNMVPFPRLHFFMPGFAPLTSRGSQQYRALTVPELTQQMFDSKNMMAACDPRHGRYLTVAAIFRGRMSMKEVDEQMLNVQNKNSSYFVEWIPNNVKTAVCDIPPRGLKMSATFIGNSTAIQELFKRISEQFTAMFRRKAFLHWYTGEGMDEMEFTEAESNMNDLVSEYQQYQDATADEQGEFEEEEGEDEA
Method: Tubulin polymerization reaction was initiated by adding 100 μL of tubulin protein from bovine brain origin (3 mg/ml, Cytoskeleton, Denver, Colo.) into 10 μM of test compounds in general tubulin buffer (80 mM PIPES, 2.0 mM MgCl2, 0.5 mM EGTA, and 1 mM GTP) according to the manufacturer protocol. The reaction kinetics were recorded in every thirty seconds for 1 h at 37° C. and a microplate reader equipped with absorbance settings at 340 nm wavelength was used for this purpose. The experiment was performed in duplicates.

MDA-MB-231/VxR = test: Cytotoxicity assay (MTS, 72 h); format: cell-based; conditions: Homo sapiens, MDA-MB-231, read-out: IC50 ± SEM (nM) MDA-MB-231/VXR
[5] = test system: taxane-resistant melanoma, breast, and lung cancer cells; test: Cytotoxicity, regular and taxane-resistant lines of Table 2; format: cell-based; conditions: Homo sapiens; taxane-resistant melanoma, breast, and lung cancer cells; read-out: IC50 values, range against taxane-resistant cells
logP = format: physicochemical; conditions: Table 1; method not described
A549/TxR = test: cells; conditions: Homo sapiens, read-out: IC50 ± SEM (nM) A549/TxR
DU-145/VxR = test: Cytotoxicity assay (MTS, 72 h); format: cell-based; conditions: Homo sapiens, DU-145, read-out: IC50 ± SEM (nM) DU-145/VXR
[6] = test system: human melanoma and breast cancer cell lines; test: Cytotoxicity, all tested cell lines of Table 1; format: cell-based; conditions: Homo sapiens, melanoma and breast lines of Table 1; read-out: IC50 values, range over all tested cell lines
A375/TxR = test: Cytotoxicity assay (MTS, 72 h); format: cell-based; conditions: Homo sapiens, Table 2, paclitaxel-resistant, read-out: IC50 ± SEM (nM) A375/TxR
RPMI-7951 = test: Cytotoxicity assay (MTS, 72 h); format: cell-based; conditions: Homo sapiens, Table 1, read-out: IC50 (nM) Melanoma RPMI-7951
MDA-MB-231/TxR = test: Cytotoxicity assay (MTS, 72 h); format: cell-based; conditions: Homo sapiens, read-out: IC50 ± SEM (nM) MDA-MB-231/TxR, Table 2, paclitaxel-resistant
Mia PaCa-2 cells = test: Scratch migration assay (PDAC); format: cell-based, human; conditions: 5m 2 nM, PTX 4 nM, 48 h; listed as PTX
Method: The Mia PaCa-2 cells (25,000 cells/well) were seeded in 96-well plates and allowed to adhere overnight. At 80-90% confluence, scratch was made with a wound maker. After washing off the debris, medium was replaced and tested compounds were added. Cells were live monitored with IncuCyte and pictures obtained every 2 h. Compared with the control, the wound width of cells under different treatment conditions was quantified according to the endpoint width over starting point.

Mia PaCa-2 [7] = test: Colony formation assay (PDAC); format: cell-based, human; conditions: tested 1, 2.5, 5 nM
Method: Cells were seeded at 1000 cells per well in 6-well plates in triplicates and treated with vehicle control or 1-5 nmol/L test compounds for 11 to 14 days. The colonies were fixed with 100% methanol and stained with 0.5% crystal violet. Colony area was quantified with Image J software.

[8] = test system: A2780/TxR ovarian cancer xenografts; test: Orthotopic A2780/TxR ovarian cancer xenograft model; conditions: paclitaxel 5 mg/kg IV
[9] = test system: PC-3/TxR xenograft tumors; test: Subcutaneous PC-3/TxR xenograft model; format: in vivo; conditions: paclitaxel 10 mg/kg, 1 dose/week
porcine brain tubulin = target: T2, porcine brain tubulin (Sus scrofa, UniProt P02550+P02554); test: Tubulin polymerization inhibitory assay (FIG. 29A); format: biochemical; conditions: 10 μM, 37° C.; DMSO control 0.3
T2 construct: tubulin mixture containing porcine brain tubulin (3 mg/mL); purchased Cytoskeleton, Inc. T-238P; host or cells: porcine brain
T2 sequence (P02550 whole entry): as the sequence (P81947 whole entry) above, with L136S, S232G, I265A, S340T, Q358E counted along it
T2 sequence (P02554 whole entry): as the sequence (Q6B856 whole entry) above, with T55A, M170V, S296A, I316V, E440G, G441E counted along it
Method: Tubulin polymerization inhibitory assay: In vitro tubulin polymerization assay was carried out according to the manufacturers' instructions (Cytoskeleton). Briefly, 10 μM of 5v was added into tubulin protein (3 mg/mL, purity>99%), and the mixture was transferred into a microplate reader and incubated at 37° C. […] Colchicine and paclitaxel were used as positive controls. […] The assay was carried out in duplicate.

PANC-1 [10] = test: Colony formation assay (PDAC); format: cell-based, human; conditions: tested 1, 2.5, 5 nM
A375/TxR xenografts = test: In vivo A375/TxR melanoma xenograft model; parameters: species or system NSG mice
M14/LCC6MDR1 = test: Cytotoxicity assay (MTS, 72 h); format: cell-based; conditions: Homo sapiens, read-out: IC50 ± SEM (nM) M14/LCC6MDR1

Structure (SMILES): Cc1nc2c(c(N3CC(=O)Nc4cc(OCc5ccccc5)ccc43)n1)CCC2 [Compound 12p, 7-(benzyloxy)-4-(2-methyl-6,7-dihydro-5H-cyclopenta[d]pyrimidin-4-yl)-3,4-dihydroquinoxalin-2(1H)-one]
- IC50 (PANC-1 [1]; Table 6, cells printed in μM, read-out: IC50 Pancreatic cancer PANC-1): > 1.2 µM
- IC50 (MDA-MB-231; MDA-MB-231, read-out: IC50 (nM) Breast Cancer MDA-MB-231, Table 6): 423 ± 110 nM
- IC50 (Mia PaCa-2 [2]; Table 6, cells printed in μM, read-out: IC50 Pancreatic cancer Mia PaCa-2): > 1.25 µM
- cytotoxic potency [3]: least in potency

Structure (SMILES): CCNc1nc2c(c(N3CC(=O)Nc4cc(OC)ccc43)n1)CCC2 [5v HCl, 4-(2-(ethylamino)-6,7-dihydro-5H-cyclopenta[d]pyrimidin-4-yl)-7-methoxy-3,4-dihydroquinoxalin-2(1H)-one]
- IC50 (A-253 and Detroit 562): 0.52 to 3.2 nM

Structure (SMILES): CCNc1nc(N2CC(=O)Nc3cc(OC)ccc32)c2ncccc2n1 [Compound 5t, 4-(2-(ethylamino)pyrido[3,2-d]pyrimidin-4-yl)-7-methoxy-3,4-dihydroquinoxalin-2(1H)-one]
- effect on microtubule polymerization [4]: significantly inhibited microtubule polymerization
- IC50 (MDA-MB-231/VxR): 2.9 ± 0.4 nM
- IC50 [5]: 0.3 to 5 nM
- logP (logP): 1.72
- IC50 (A549/TxR): 5.4 ± 1.7 nM
- IC50 (DU-145/VxR): 1.8 ± 0.4 nM
- IC50 [6]: 0.4 to 26 nM
- IC50 (A375/TxR): 1.3 nM
- IC50 (RPMI-7951): 0.8 ± 0.1 nM

Structure (SMILES): CC(=O)O[C@H]1C(=O)[C@@]2(C)[C@H]([C@H](OC(=O)c3ccccc3)[C@]3(O)C[C@H](OC(=O)[C@H](O)[C@@H](NC(=O)c4ccccc4)c4ccccc4)C(C)=C1C3(C)C)[C@]1(OC(C)=O)CO[C@@H]1C[C@@H]2O [Paclitaxel, reference compound]
- IC50 (MDA-MB-231/TxR): > 50 nM
- effect on microtubule polymerization [4]: polymerization enhancement
- IC50 (PANC-1 [1]; Example 7, FIG. 20, read-out: calculated IC50, PANC-1 cells): 0.0011 µM
- cell migration / wound healing (Mia PaCa-2 cells): inhibited cell migration over 48 hours
- IC50 (MDA-MB-231/VxR): 3.4 ± 0.5 nM
- IC50 (MDA-MB-231; MDA-MB-231, read-out: IC50 ± SEM (nM) MDA-MB-231, Table 2): 2.3 ± 0.4 nM
- dose at which colony formation was completely inhibited (Mia PaCa-2 [7]): 5 nM
- effect on A2780/TxR model [8]: limited effect
- IC50 (A549/TxR): > 1000 nM
- tumor weight reduction [9]: insignificant tumor weight reduction
- A340 at which tubulin assembly stabilized (porcine brain tubulin): approximately 0.4
- IC50 (Mia PaCa-2 [2]; Example 7, FIG. 20, read-out: calculated IC50, Mia PaCa-2 cells): 0.0025 µM
- dose with nearly complete inhibition of colony formation (PANC-1 [10]): 5 nM
- spontaneous lung metastasis (A375/TxR xenografts; H&E and anti-human mitochondria IHC): no effect on the lung spontaneous metastasis
- tumor-suppressive effect (A375/TxR xenografts; paclitaxel 4 mg/kg IV twice a week): no significant tumor-suppressive effect
- effect on tumor growth (A375/TxR xenografts; paclitaxel 10 mg/kg IV, 2 times per week): ineffective

Structure (SMILES): COc1cc2c(c(OC)c1OC)-c1ccc(OC)c(=O)cc1[C@@H](NC(C)=O)CC2 [Colchicine, reference compound]
- IC50 (M14/LCC6MDR1): > 1000 nM

From patent US20230286995A1, “METABOLICALLY STABLE PYRIMIDINYL DIHYDROQUINOXALINONES AS TUBULIN POLYMERIZATION INHIBITORS” (UNIVERSITY OF TENNESSEE RESEARCH FOUNDATION, priority 2022, published 2023)
